Data reported in ChEMBL document CHEMBL1833893, “Synthesis and anticonvulsant activity of new 1-[2-oxo-2-(4-phenylpiperazin-1-yl)ethyl]pyrrolidine-2,5-diones” (Bioorg Med Chem Lett, 2011).
The source made the active and inactive calls. The rule behind the calls is not given here.

How the values were obtained:
Mus musculus [1] = assay: Anticonvulsant activity in ip dosed albino CF1 mouse assessed as protection against maximal electroshock-induced seizures after 0.5 hrs; assay type: functional; conditions: read-out: MED
Mus musculus [2] = assay: Anticonvulsant activity in ip dosed albino CF1 mouse assessed as protection against subcutaneous pentylenetetrazole-induced seizures after 0.5 hrs; assay type: functional; conditions: albino CF1, 0.5 h, read-out: MED
Mus musculus [3] = assay: Anticonvulsant activity in ip dosed albino CF1 mouse assessed as protection against maximal electroshock-induced seizures after 4 hrs; assay type: functional; conditions: read-out: MED
Mus musculus [4] = assay: Neurotoxicity in ip dosed albino CF1 mouse assessed as minimum dose required to cause motor impairment after 0.5 hrs by rotarod test; assay type: toxicity, organism-based; conditions: in vivo
Rattus norvegicus [5] = assay: Anticonvulsant activity in Sprague-Dawley rat assessed as protection against maximal electroshock-induced seizures at 30 mg/kg, po after 4 hrs; assay type: functional
Mus musculus [6] = assay: Neurotoxicity in albino CF1 mouse assessed as motor impairment at 300 mg/kg, ip after 4 hrs by rotarod test; assay type: toxicity, organism-based; set-up: dose 300 mg/kg, route intraperitoneal; conditions: in vivo
Rattus norvegicus [7] = assay: Anticonvulsant activity in Sprague-Dawley rat assessed as protection against maximal electroshock-induced seizures at 30 mg/kg, po after 0.5 hrs; assay type: functional
Rattus norvegicus [8] = assay: Anticonvulsant activity in Sprague-Dawley rat assessed as protection against maximal electroshock-induced seizures at 30 mg/kg, po after 2 hrs; assay type: functional
Mus musculus [9] = assay: Anticonvulsant activity in albino CF1 mouse assessed as protection against electrically-induced seizure at 100 mg/kg, ip after 1 hr by 6Hz psychomotor seizure test; assay type: functional
Rattus norvegicus [10] = assay: Anticonvulsant activity in Sprague-Dawley rat assessed as protection against maximal electroshock-induced seizures at 30 mg/kg, po after 1 hr; assay type: functional
Rattus norvegicus [11] = assay: Anticonvulsant activity in Sprague-Dawley rat assessed as protection against maximal electroshock-induced seizures at 30 mg/kg, po after 0.25 hrs; assay type: functional
Mus musculus [12] = assay: Anticonvulsant activity in albino CF1 mouse assessed as protection against electrically-induced seizure at 100 mg/kg, ip after 0.5 hrs by 6Hz psychomotor seizure test; assay type: functional; conditions: route intraperitoneal
Mus musculus [13] = assay: Anticonvulsant activity in albino CF1 mouse assessed as protection against electrically-induced seizure at 100 mg/kg, ip after 0.25 hrs by 6Hz psychomotor seizure test; assay type: functional; conditions: route intraperitoneal
Mus musculus [14] = assay: Anticonvulsant activity in albino CF1 mouse assessed as protection against subcutaneous pentylenetetrazole-induced seizures at 300 mg/kg, ip after 4 hrs; assay type: functional, organism-based; set-up: dose 300 mg/kg
Mus musculus [15] = assay: Anticonvulsant activity in albino CF1 mouse assessed as protection against subcutaneous pentylenetetrazole-induced seizures at 300 mg/kg, ip after 0.5 hrs; assay type: functional, organism-based; set-up: dose 300 mg/kg
Mus musculus [16] = assay: Anticonvulsant activity in albino CF1 mouse assessed as protection against maximal electroshock-induced seizures at 300 mg/kg, ip after 4 hrs; assay type: functional, organism-based; set-up: dose 300 mg/kg
Mus musculus [17] = assay: Neurotoxicity in albino CF1 mouse assessed as motor impairment at 300 mg/kg, ip after 0.5 hrs by rotarod test; assay type: toxicity, organism-based; set-up: dose 300 mg/kg, route intraperitoneal; conditions: in vivo
Mus musculus [18] = assay: Anticonvulsant activity in albino CF1 mouse assessed as protection against electrically-induced seizure at 100 mg/kg, ip after 2 hrs by 6Hz psychomotor seizure test; assay type: functional
Mus musculus [19] = assay: Anticonvulsant activity in albino CF1 mouse assessed as protection against electrically-induced seizure at 100 mg/kg, ip after 4 hrs by 6Hz psychomotor seizure test; assay type: functional
Mus musculus [20] = assay: Neurotoxicity in ip dosed albino CF1 mouse assessed as minimum dose required to cause motor impairment after 4 hrs by rotarod test; assay type: toxicity, organism-based; conditions: in vivo

| SMILES | minimal effective dose (Mus musculus [1]) [mg/kg] | minimal effective dose (Mus musculus [2]) [mg/kg] | minimal effective dose (Mus musculus [3]) [mg/kg] | MTC (Mus musculus [4]) [mg/kg] | Activity (Rattus norvegicus [5]) | Activity (Mus musculus [6]) | Activity (Rattus norvegicus [7]) | Activity (Rattus norvegicus [8]) | Activity (Mus musculus [9]; route intraperitoneal) [%] | Activity (Rattus norvegicus [10]) | Activity (Mus musculus [12]) [%] | Activity (Mus musculus [13]) [%] | Activity (Mus musculus [14]) | Activity (Mus musculus [15]) | Activity (Mus musculus [16]) | Activity (Mus musculus [17]) | further results |
| --- | --- | --- | --- | --- | --- | --- | --- | --- | --- | --- | --- | --- | --- | --- | --- | --- | --- |
| CC1(C)CC(=O)N(CC(=O)N2CCN(c3ccc(F)cc3)CC2)C1=O | 100 | 300 | 100 | 300 | inactive | Non-toxic | inactive | inactive | 75 | inactive | 100 | 100 | inactive |  |  |  | Activity (Rattus norvegicus [11]): inactive |
| CC1(C)CC(=O)N(CC(=O)N2CCN(c3ccccc3Cl)CC2)C1=O | 300 |  |  |  |  | Non-toxic |  |  |  |  |  |  | inactive | inactive | inactive | Non-toxic |  |
| CC1CC(=O)N(CC(=O)N2CCN(c3ccccc3Cl)CC2)C1=O (stereo not given) | 300 | 300 |  | 300 | inactive | Non-toxic | inactive | inactive |  | inactive | 100 | 100 | inactive |  | inactive |  | Activity (Mus musculus [18]): inactive; Activity (Mus musculus [19]): inactive; Activity (Rattus norvegicus [11]): 75% |
| CC1CC(=O)N(CC(=O)N2CCN(c3ccc(Cl)cc3)CC2)C1=O (stereo not given) | 300 |  | 100 |  | 75% |  | 75% | 75% | 75 | 75% |  | 75 | inactive | inactive |  | Non-toxic | MTC (Mus musculus [20]): 300 mg/kg |
| CC1(C)CC(=O)N(CC(=O)N2CCN(c3cccc(C(F)(F)F)c3)CC2)C1=O | 100 |  | 100 |  | inactive | Non-toxic | inactive | inactive | 75 | inactive | 75 |  | inactive | inactive |  | Non-toxic |  |
| O=C(CN1C(=O)CCC1=O)N1CCN(c2ccccc2)CC1 | 300 |  |  |  |  | Non-toxic |  |  |  |  |  |  | inactive | inactive | inactive | Non-toxic |  |
| CC1CC(=O)N(CC(=O)N2CCN(c3ccccc3F)CC2)C1=O (stereo not given) | 300 |  | 300 | 300 |  | Non-toxic |  |  |  |  |  |  | inactive | inactive |  |  |  |
| O=C1NC(=O)C(c2ccccc2)(c2ccccc2)N1 [PHENYTOIN] | 30 |  | 30 | 100 | 75% |  | 100% | 75% |  | 75% |  |  | inactive | inactive |  |  | MTC (Mus musculus [20]): 100 mg/kg |
| O=C(CN1C(=O)CCC1=O)N1CCN(c2ccccc2F)CC1 | 300 | 300 |  | 300 |  | Non-toxic |  |  |  |  |  |  | inactive |  |  |  |  |
| CC1(C)CC(=O)N(CC(=O)N2CCN(c3ccccc3F)CC2)C1=O | 300 |  |  |  |  | Non-toxic |  |  |  |  |  |  | inactive | inactive | inactive | Non-toxic |  |
| CCC1(CC)CC(=O)N(CC(=O)N2CCN(c3cccc(C(F)(F)F)c3)CC2)C1=O | 300 |  | 300 |  |  | Non-toxic |  |  |  |  |  |  | inactive | inactive |  | Non-toxic |  |
| CC1(C)CC(=O)N(CC(=O)N2CCN(c3ccc(Cl)cc3)CC2)C1=O | 100 | 300 | 100 | 300 | 100% | Non-toxic | inactive |  | 100 | inactive | 100 | 100 | inactive |  |  |  | Activity (Rattus norvegicus [11]): inactive |
| O=C(CN1C(=O)CCC1=O)N1CCN(c2ccccc2Cl)CC1 | 100 | 300 |  | 300 | inactive | Non-toxic | inactive | inactive |  | inactive |  | 75 | inactive |  | inactive |  | Activity (Mus musculus [18]): inactive; Activity (Mus musculus [9]): inactive; Activity (Mus musculus [19]): inactive; Activity (Rattus norvegicus [11]): inactive |
| CC1CC(=O)N(CC(=O)N2CCN(c3cccc(C(F)(F)F)c3)CC2)C1=O (stereo not given) | 100 | 300 | 100 | 300 |  |  | inactive |  | 100 |  | 100 | 100 | inactive |  |  |  | MTC (Mus musculus [20]): 300 mg/kg; Activity (Mus musculus [18]; route intraperitoneal): 75%; Activity (Mus musculus [19]): inactive; Activity (Rattus norvegicus [11]): inactive |
| CC1CC(=O)N(CC(=O)N2CCN(c3ccc(F)cc3)CC2)C1=O (stereo not given) | 300 |  | 100 |  |  | Non-toxic |  |  | 75 |  | 75 |  | inactive | inactive |  | Non-toxic | Activity (Mus musculus [19]): inactive |
| CCC1(CC)CC(=O)N(CC(=O)N2CCN(c3ccccc3Cl)CC2)C1=O | 300 |  |  | 300 |  | Non-toxic |  |  |  |  |  |  | inactive | inactive | inactive |  |  |
| O=C(CN1C(=O)CCC1=O)N1CCN(c2ccc(F)cc2)CC1 | 300 |  | 300 |  |  | Non-toxic |  |  |  |  |  |  | inactive | inactive |  | Non-toxic |  |
